{"source": "paper PMC12446476", "about": "(Nature Communications, 2025)", "system": "N. gonorrhoeae", "assay": "MIC determination, Etest", "assay_type": "cell-based, Neisseria gonorrhoeae", "conditions": "Neisseria gonorrhoeae, comparator antibiotics, read-out: Minimum inhibitory concentration", "from_the_text": "The 2024 WHO N. gonorrhoeae reference strains were used for quality control. Only whole MIC doubling dilutions are reported. Clinical breakpoints or the epidemiological cutoff (ECOFF, to indicate azithromycin resistance) from EUCAST (v14.0, https://www.eucast.org/clinical_breakpoints) were used to classify isolates as antimicrobial susceptible or resistant. […] Two times the standard inoculum defined by CLSI was used to establish consistent growth in untreated control samples for some strains. In vitro time-kill assays were performed according to CLSI guidelines[65] using Columbia Broth (BD Difco) supplemented with 1% IsoVitaleX Enrichment (BD). Viable bacterial counts were generated by plating 10-fold serially diluted samples on GC agar plates containing 1% IsoVitaleX Enrichment (BD).", "note": "Where two headings read alike, the source gives them in different places."}
{"smiles": "CO/N=C(\\C(=O)N[C@@H]1C(=O)N2C(C(=O)O)=C(CSc3nc(=O)c(=O)[nH]n3C)CS[C@H]12)c1csc(N)n1", "note": "[Ceftriaxone, reference compound]", "values": [{"measurement": "MIC", "setting": "clinical N. gonorrhoeae isolate 1, Sweden 2023", "value": 4, "unit": "ng/mL"}, {"measurement": "MIC", "setting": "clinical N. gonorrhoeae isolate 2, Sweden 2023", "value": 32, "unit": "ng/mL"}, {"measurement": "MIC", "setting": "clinical N. gonorrhoeae isolate 3, Sweden 2023", "value": 4, "unit": "ng/mL"}, {"measurement": "MIC", "setting": "clinical N. gonorrhoeae isolate 4, Sweden 2023", "value": 32, "unit": "ng/mL"}, {"measurement": "MIC", "setting": "clinical N. gonorrhoeae isolate 5, Sweden 2023", "value": 4, "unit": "ng/mL"}, {"measurement": "MIC", "setting": "clinical N. gonorrhoeae isolate 6, Sweden 2023", "value": "< 2", "unit": "ng/mL"}, {"measurement": "MIC", "setting": "clinical N. gonorrhoeae isolate 7, Sweden 2023", "value": 8, "unit": "ng/mL"}, {"measurement": "MIC", "setting": "clinical N. gonorrhoeae isolate 8, Sweden 2023", "value": 4, "unit": "ng/mL"}, {"measurement": "MIC", "setting": "clinical N. gonorrhoeae isolate 9, Sweden 2023", "value": 4, "unit": "ng/mL"}, {"measurement": "MIC", "setting": "clinical N. gonorrhoeae isolate 10, Sweden 2023", "value": "< 2", "unit": "ng/mL"}, {"measurement": "MIC", "setting": "clinical N. gonorrhoeae isolate 11, Sweden 2023", "value": 64, "unit": "ng/mL"}, {"measurement": "MIC", "setting": "clinical N. gonorrhoeae isolate 12, Sweden 2023", "value": 8, "unit": "ng/mL"}, {"measurement": "MIC", "setting": "clinical N. gonorrhoeae isolate 13, Sweden 2023", "value": "< 2", "unit": "ng/mL"}, {"measurement": "MIC", "setting": "clinical N. gonorrhoeae isolate 14, Sweden 2023", "value": 4, "unit": "ng/mL"}, {"measurement": "MIC", "setting": "clinical N. gonorrhoeae isolate 15, Sweden 2023", "value": 4, "unit": "ng/mL"}, {"measurement": "MIC", "setting": "clinical N. gonorrhoeae isolate 16, Sweden 2023", "value": 32, "unit": "ng/mL"}, {"measurement": "MIC", "setting": "clinical N. gonorrhoeae isolate 17, Sweden 2023", "value": 4, "unit": "ng/mL"}, {"measurement": "MIC", "setting": "clinical N. gonorrhoeae isolate 18, Sweden 2023", "value": 4, "unit": "ng/mL"}, {"measurement": "MIC", "setting": "clinical N. gonorrhoeae isolate 19, Sweden 2023", "value": 16, "unit": "ng/mL"}, {"measurement": "MIC", "setting": "clinical N. gonorrhoeae isolate 20, Sweden 2023", "value": 2, "unit": "ng/mL"}, {"measurement": "MIC", "setting": "clinical N. gonorrhoeae isolate 21, Sweden 2023", "value": 2, "unit": "ng/mL"}, {"measurement": "MIC", "setting": "clinical N. gonorrhoeae isolate 22, Sweden 2023", "value": 2, "unit": "ng/mL"}, {"measurement": "MIC", "setting": "clinical N. gonorrhoeae isolate 23, Sweden 2023", "value": "< 2", "unit": "ng/mL"}, {"measurement": "MIC", "setting": "clinical N. gonorrhoeae isolate 24, Sweden 2023", "value": 2, "unit": "ng/mL"}, {"measurement": "MIC", "setting": "clinical N. gonorrhoeae isolate 25, Sweden 2023", "value": 4, "unit": "ng/mL"}, {"measurement": "MIC", "setting": "clinical N. gonorrhoeae isolate 26, Sweden 2023", "value": 4, "unit": "ng/mL"}, {"measurement": "MIC", "setting": "clinical N. gonorrhoeae isolate 27, Sweden 2023", "value": 4, "unit": "ng/mL"}, {"measurement": "MIC", "setting": "clinical N. gonorrhoeae isolate 28, Sweden 2023", "value": 8, "unit": "ng/mL"}, {"measurement": "MIC", "setting": "clinical N. gonorrhoeae isolate 29, Sweden 2023", "value": 4, "unit": "ng/mL"}, {"measurement": "MIC", "setting": "clinical N. gonorrhoeae isolate 30, Sweden 2023", "value": "< 2", "unit": "ng/mL"}, {"measurement": "MIC", "setting": "clinical N. gonorrhoeae isolate 31, Sweden 2023", "value": 4, "unit": "ng/mL"}, {"measurement": "MIC", "setting": "clinical N. gonorrhoeae isolate 32, Sweden 2023", "value": 2, "unit": "ng/mL"}, {"measurement": "MIC", "setting": "clinical N. gonorrhoeae isolate 33, Sweden 2023", "value": 2, "unit": "ng/mL"}, {"measurement": "MIC", "setting": "clinical N. gonorrhoeae isolate 34, Sweden 2023", "value": 4, "unit": "ng/mL"}, {"measurement": "MIC", "setting": "clinical N. gonorrhoeae isolate 35, Sweden 2023", "value": 64, "unit": "ng/mL"}, {"measurement": "MIC", "setting": "clinical N. gonorrhoeae isolate 36, Sweden 2023", "value": 8, "unit": "ng/mL"}, {"measurement": "MIC", "setting": "clinical N. gonorrhoeae isolate 37, Sweden 2023", "value": 16, "unit": "ng/mL"}, {"measurement": "MIC", "setting": "clinical N. gonorrhoeae isolate 38, Sweden 2023", "value": 4, "unit": "ng/mL"}, {"measurement": "MIC", "setting": "clinical N. gonorrhoeae isolate 39, Sweden 2023", "value": 4, "unit": "ng/mL"}, {"measurement": "MIC", "setting": "clinical N. gonorrhoeae isolate 40, Sweden 2023", "value": 8, "unit": "ng/mL"}, {"measurement": "MIC", "setting": "clinical N. gonorrhoeae isolate 41, Sweden 2023", "value": 32, "unit": "ng/mL"}, {"measurement": "MIC", "setting": "clinical N. gonorrhoeae isolate 42, Sweden 2023", "value": "< 2", "unit": "ng/mL"}, {"measurement": "MIC", "setting": "clinical N. gonorrhoeae isolate 43, Sweden 2023", "value": 4, "unit": "ng/mL"}, {"measurement": "MIC", "setting": "clinical N. gonorrhoeae isolate 44, Sweden 2023", "value": 64, "unit": "ng/mL"}, {"measurement": "MIC", "setting": "clinical N. gonorrhoeae isolate 45, Sweden 2023", "value": 2, "unit": "ng/mL"}, {"measurement": "MIC", "setting": "clinical N. gonorrhoeae isolate 46, Sweden 2023", "value": 16, "unit": "ng/mL"}, {"measurement": "MIC", "setting": "clinical N. gonorrhoeae isolate 47, Sweden 2023", "value": 8, "unit": "ng/mL"}, {"measurement": "MIC", "setting": "clinical N. gonorrhoeae isolate 48, Sweden 2023", "value": 4, "unit": "ng/mL"}, {"measurement": "MIC", "setting": "clinical N. gonorrhoeae isolate 49, Sweden 2023", "value": 4, "unit": "ng/mL"}, {"measurement": "MIC", "setting": "clinical N. gonorrhoeae isolate 50, Sweden 2023", "value": 4, "unit": "ng/mL"}, {"measurement": "MIC", "setting": "clinical N. gonorrhoeae isolate 51, Sweden 2023", "value": 2, "unit": "ng/mL"}, {"measurement": "MIC", "setting": "clinical N. gonorrhoeae isolate 52, Sweden 2023", "value": 2, "unit": "ng/mL"}, {"measurement": "MIC", "setting": "clinical N. gonorrhoeae isolate 53, Sweden 2023", "value": 2, "unit": "ng/mL"}, {"measurement": "MIC", "setting": "clinical N. gonorrhoeae isolate 54, Sweden 2023", "value": 4, "unit": "ng/mL"}, {"measurement": "MIC", "setting": "clinical N. gonorrhoeae isolate 55, Sweden 2023", "value": 4, "unit": "ng/mL"}, {"measurement": "MIC", "setting": "clinical N. gonorrhoeae isolate 56, Sweden 2023", "value": 32, "unit": "ng/mL"}, {"measurement": "MIC", "setting": "clinical N. gonorrhoeae isolate 57, Sweden 2023", "value": 16, "unit": "ng/mL"}, {"measurement": "MIC", "setting": "clinical N. gonorrhoeae isolate 58, Sweden 2023", "value": 2, "unit": "ng/mL"}, {"measurement": "MIC", "setting": "clinical N. gonorrhoeae isolate 59, Sweden 2023", "value": 16, "unit": "ng/mL"}, {"measurement": "MIC", "setting": "clinical N. gonorrhoeae isolate 60, Sweden 2023", "value": 2, "unit": "ng/mL"}, {"measurement": "MIC", "setting": "clinical N. gonorrhoeae isolate 61, Sweden 2023", "value": "< 2", "unit": "ng/mL"}, {"measurement": "MIC", "setting": "clinical N. gonorrhoeae isolate 62, Sweden 2023", "value": "< 2", "unit": "ng/mL"}, {"measurement": "MIC", "setting": "clinical N. gonorrhoeae isolate 63, Sweden 2023", "value": "< 2", "unit": "ng/mL"}, {"measurement": "MIC", "setting": "clinical N. gonorrhoeae isolate 64, Sweden 2023", "value": 16, "unit": "ng/mL"}, {"measurement": "MIC", "setting": "clinical N. gonorrhoeae isolate 65, Sweden 2023", "value": "< 2", "unit": "ng/mL"}, {"measurement": "MIC", "setting": "clinical N. gonorrhoeae isolate 66, Sweden 2023", "value": 32, "unit": "ng/mL"}, {"measurement": "MIC", "setting": "clinical N. gonorrhoeae isolate 67, Sweden 2023", "value": 16, "unit": "ng/mL"}, {"measurement": "MIC", "setting": "clinical N. gonorrhoeae isolate 68, Sweden 2023", "value": 4, "unit": "ng/mL"}, {"measurement": "MIC", "setting": "clinical N. gonorrhoeae isolate 69, Sweden 2023", "value": 4, "unit": "ng/mL"}, {"measurement": "MIC", "setting": "clinical N. gonorrhoeae isolate 70, Sweden 2023", "value": "< 2", "unit": "ng/mL"}, {"measurement": "MIC", "setting": "clinical N. gonorrhoeae isolate 71, Sweden 2023", "value": 32, "unit": "ng/mL"}, {"measurement": "MIC", "setting": "clinical N. gonorrhoeae isolate 72, Sweden 2023", "value": 32, "unit": "ng/mL"}, {"measurement": "MIC", "setting": "clinical N. gonorrhoeae isolate 73, Sweden 2023", "value": 16, "unit": "ng/mL"}, {"measurement": "MIC", "setting": "clinical N. gonorrhoeae isolate 74, Sweden 2023", "value": 32, "unit": "ng/mL"}, {"measurement": "MIC", "setting": "clinical N. gonorrhoeae isolate 75, Sweden 2023", "value": 32, "unit": "ng/mL"}, {"measurement": "MIC", "setting": "clinical N. gonorrhoeae isolate 76, Sweden 2023", "value": 4, "unit": "ng/mL"}, {"measurement": "MIC", "setting": "clinical N. gonorrhoeae isolate 77, Sweden 2023", "value": 2, "unit": "ng/mL"}, {"measurement": "MIC", "setting": "clinical N. gonorrhoeae isolate 78, Sweden 2023", "value": 16, "unit": "ng/mL"}, {"measurement": "MIC", "setting": "clinical N. gonorrhoeae isolate 79, Sweden 2023", "value": "< 2", "unit": "ng/mL"}, {"measurement": "MIC", "setting": "clinical N. gonorrhoeae isolate 80, Sweden 2023", "value": 8, "unit": "ng/mL"}, {"measurement": "MIC", "setting": "clinical N. gonorrhoeae isolate 81, Sweden 2023", "value": 4, "unit": "ng/mL"}, {"measurement": "MIC", "setting": "clinical N. gonorrhoeae isolate 82, Sweden 2023", "value": 16, "unit": "ng/mL"}, {"measurement": "MIC", "setting": "clinical N. gonorrhoeae isolate 83, Sweden 2023", "value": 4, "unit": "ng/mL"}, {"measurement": "MIC", "setting": "clinical N. gonorrhoeae isolate 84, Sweden 2023", "value": 64, "unit": "ng/mL"}, {"measurement": "MIC", "setting": "clinical N. gonorrhoeae isolate 85, Sweden 2023", "value": 4, "unit": "ng/mL"}, {"measurement": "MIC", "setting": "clinical N. gonorrhoeae isolate 86, Sweden 2023", "value": 8, "unit": "ng/mL"}, {"measurement": "MIC", "setting": "clinical N. gonorrhoeae isolate 87, Sweden 2023", "value": 2, "unit": "ng/mL"}, {"measurement": "MIC", "setting": "clinical N. gonorrhoeae isolate 88, Sweden 2023", "value": 64, "unit": "ng/mL"}, {"measurement": "MIC", "setting": "clinical N. gonorrhoeae isolate 89, Sweden 2023", "value": 4, "unit": "ng/mL"}, {"measurement": "MIC", "setting": "clinical N. gonorrhoeae isolate 90, Sweden 2023", "value": 2, "unit": "ng/mL"}, {"measurement": "MIC", "setting": "clinical N. gonorrhoeae isolate 91, Sweden 2023", "value": 4, "unit": "ng/mL"}, {"measurement": "MIC", "setting": "clinical N. gonorrhoeae isolate 92, Sweden 2023", "value": 4, "unit": "ng/mL"}, {"measurement": "MIC", "setting": "clinical N. gonorrhoeae isolate 93, Sweden 2023", "value": 4, "unit": "ng/mL"}, {"measurement": "MIC", "setting": "clinical N. gonorrhoeae isolate 94, Sweden 2023", "value": 2, "unit": "ng/mL"}, {"measurement": "MIC", "setting": "clinical N. gonorrhoeae isolate 95, Sweden 2023", "value": "< 2", "unit": "ng/mL"}, {"measurement": "MIC", "setting": "clinical N. gonorrhoeae isolate 96, Sweden 2023", "value": 2, "unit": "ng/mL"}, {"measurement": "MIC", "setting": "clinical N. gonorrhoeae isolate 97, Sweden 2023", "value": "< 2", "unit": "ng/mL"}, {"measurement": "MIC", "setting": "clinical N. gonorrhoeae isolate 98, Sweden 2023", "value": 2, "unit": "ng/mL"}, {"measurement": "MIC", "setting": "clinical N. gonorrhoeae isolate 99, Sweden 2023", "value": 4, "unit": "ng/mL"}, {"measurement": "MIC", "setting": "clinical N. gonorrhoeae isolate 100, Sweden 2023", "value": 4, "unit": "ng/mL"}]}
